# pIC50: −log10 of the molar value.
# Target: Protein kinase C alpha type (Homo sapiens, UniProt P17252)
# Assay: Inhibition of human recombinant PKCalpha
row,Compound,pIC50
1,OC[C@H]1O[C@@H](O[C@H](CCCCc2ccc(O)c(O)c2)CCc2ccc(O)c(O)c2)[C@H](O)[C@@H](O)[C@@H]1O,5.55
2,O=C(/C=C/CCc1ccc(O)c(O)c1)CCc1ccc(O)c(O)c1 [DEHYDROHIRSUTANONOL],5.37
3,O=C(CCc1ccc(O)c(O)c1)C[C@H](CCc1ccc(O)c(O)c1)O[C@@H]1OC[C@@H](O)[C@H](O)[C@H]1O [OREGONIN],4.75

# The remaining lines, values ahead:
row,pIC50,Compound
1,5.32,Oc1ccc(CCCC[C@@H](O)CCc2ccc(O)c(O)c2)cc1O
2,4.88,O=C(CCc1ccc(O)c(O)c1)C[C@@H](O)CCc1ccc(O)c(O)c1 [HIRSUTANONOL]

# Reference: ChEMBL document CHEMBL1151313, “Isolation and structure elucidation of new PKCalpha inhibitors from Pinus flexilis” (J Nat Prod, 1998)
